Laboratory results taken from PubChem BioAssay (NCI).
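Step 1: Grow cells in 96-well plates. Step 2: Expose to compound for 48 hours at 5 concentrations. Step 3: Interpolate endpoints linearly; if unreached, use highest concentration. TGI marks complete inhibition of growth.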

Assays:
Experiment in all cases: DTP human tumour cell line panel, 48 h
786-0 renal = test system: 786-0 renal
A498 renal = test system: A498 renal
A549 NSCLC = test system: A549 NSCLC
ACHN renal = test system: ACHN renal
CAKI-1 renal = test system: CAKI-1 renal
CCRF-CEM leukemia = test system: CCRF-CEM leukemia
COLO 205 colon = test system: COLO 205 colon
DU-145 prostate = test system: DU-145 prostate
EKVX NSCLC = test system: EKVX NSCLC
HCT-116 colon = test system: HCT-116 colon
HCT-15 colon = test system: HCT-15 colon
HL-60(TB) leukemia = test system: HL-60(TB) leukemia
HOP-92 NSCLC = test system: HOP-92 NSCLC
HS 578T breast = test system: HS 578T breast
HT29 colon = test system: HT29 colon
IGROV1 ovarian = test system: IGROV1 ovarian
K-562 leukemia = test system: K-562 leukemia
KM12 colon = test system: KM12 colon
LOX IMVI melanoma = test system: LOX IMVI melanoma
M14 melanoma = test system: M14 melanoma
MALME-3M melanoma = test system: MALME-3M melanoma
MCF7 breast = test system: MCF7 breast
MDA-MB-231 breast = test system: MDA-MB-231 breast
MDA-MB-435 = test system: MDA-MB-435
MDA-N = test system: MDA-N
MOLT-4 leukemia = test system: MOLT-4 leukemia
NCI-H226 lung = test system: NCI-H226 lung
NCI-H23 lung = test system: NCI-H23 lung
NCI-H460 lung = test system: NCI-H460 lung
NCI-H522 lung = test system: NCI-H522 lung
NCI/ADR-RES ovarian = test system: NCI/ADR-RES ovarian
OVCAR-3 ovarian = test system: OVCAR-3 ovarian
OVCAR-4 ovarian = test system: OVCAR-4 ovarian
OVCAR-5 ovarian = test system: OVCAR-5 ovarian
OVCAR-8 ovarian = test system: OVCAR-8 ovarian
PC-3 prostate = test system: PC-3 prostate
RPMI-8226 leukemia = test system: RPMI-8226 leukemia
RXF 393 renal = test system: RXF 393 renal
SF-268 CNS = test system: SF-268 CNS
SF-295 CNS = test system: SF-295 CNS
SF-539 CNS = test system: SF-539 CNS
SK-MEL-2 melanoma = test system: SK-MEL-2 melanoma
SK-MEL-28 melanoma = test system: SK-MEL-28 melanoma
SK-MEL-5 melanoma = test system: SK-MEL-5 melanoma
SN12C renal = test system: SN12C renal
SNB-19 CNS = test system: SNB-19 CNS
SNB-75 CNS = test system: SNB-75 CNS
SR leukemia = test system: SR leukemia
SW-620 colon = test system: SW-620 colon
TK-10 renal = test system: TK-10 renal
U251 CNS = test system: U251 CNS
UACC-257 melanoma = test system: UACC-257 melanoma
UACC-62 melanoma = test system: UACC-62 melanoma
UO-31 renal = test system: UO-31 renal
HCC-2998 colon = test system: HCC-2998 colon
HOP-62 NSCLC = test system: HOP-62 NSCLC
SK-OV-3 ovarian = test system: SK-OV-3 ovarian
T-47D breast = test system: T-47D breast

Measured: TGI

C=C/C(C)=C\CC1[C@](C)(O)CC[C@H]2C(C)(C)C(O)CC[C@]12C (some centres undefined)
not listed: HCC-2998 colon | HOP-62 NSCLC | SK-OV-3 ovarian | T-47D breast
> 100 µM: all other assays above

CNC(=O)NCCN1CC2CCC(CC2)C1
not listed: HOP-92 NSCLC | OVCAR-5 ovarian
> 10 µM: all other assays above

NC(N)=NC(N)=Nc1cnccn1
not listed: HS 578T breast | NCI-H460 lung | OVCAR-5 ovarian | RPMI-8226 leukemia | SF-268 CNS | SR leukemia
> 100 µM: all other assays above

COC(=O)c1ccccc1CC(Cc1ccc2c(c1)CCC2)C(=O)OC (centres undefined)
84.1 µM: SK-MEL-5 melanoma
not listed: UACC-62 melanoma
> 100 µM: all other assays above
